Source: the CheMixHub viscosity set
Values joined by “and” are separate entries in the source; they are usually repeats but may differ in a detail not shown here. Equal entries are not always repeated.

Assay: xn = mol fraction of the nth substance listed

CN(C)C=O + O
Conditions	viscosity
293.15 K, 101 kPa, x1 = 0.0254	1.471 mPa·s
293.15 K, 101 kPa, x1 = 0.0555	1.784 mPa·s
293.15 K, 101 kPa, x1 = 0.0915	2.173 mPa·s
293.15 K, 101 kPa, x1 = 0.1355	2.435 mPa·s
293.15 K, 101 kPa, x1 = 0.1904	2.755 mPa·s
293.15 K, 101 kPa, x1 = 0.2608	2.969 mPa·s
293.15 K, 101 kPa, x1 = 0.2921	2.981 mPa·s
293.15 K, 101 kPa, x1 = 0.304	3.018 mPa·s
293.15 K, 101 kPa, x1 = 0.3199	2.973 mPa·s
293.15 K, 101 kPa, x1 = 0.3544	2.937 mPa·s
293.15 K, 101 kPa, x1 = 0.4137	2.705 mPa·s
293.15 K, 101 kPa, x1 = 0.4848	2.515 mPa·s
293.15 K, 101 kPa, x1 = 0.5714	2.002 mPa·s
293.15 K, 101 kPa, x1 = 0.6792	1.674 mPa·s
293.15 K, 101 kPa, x1 = 0.8171	1.276 mPa·s
293.15 K, 101 kPa, x2 = 0.1	0.9649 mPa·s and 0.9619 mPa·s
293.15 K, 101 kPa, x2 = 0.2	1.129 mPa·s and 1.125 mPa·s and 1.65 mPa·s
293.15 K, 101 kPa, x2 = 0.3	1.357 mPa·s and 1.351 mPa·s
293.15 K, 101 kPa, x2 = 0.4	1.674 mPa·s and 1.67 mPa·s and 2.25 mPa·s
293.15 K, 101 kPa, x2 = 0.5	2.177 mPa·s and 2.088 mPa·s
293.15 K, 101 kPa, x2 = 0.6	2.564 mPa·s and 2.556 mPa·s
293.15 K, 101 kPa, x2 = 0.7	2.885 mPa·s and 2.875 mPa·s
293.15 K, 101 kPa, x2 = 0.8	2.761 mPa·s and 2.754 mPa·s
293.15 K, 101 kPa, x2 = 0.9	2.019 mPa·s and 2.015 mPa·s
293.15 K, 101 kPa, x2 = 0.92	1.818 mPa·s and 1.813 mPa·s
293.15 K, 101 kPa, x2 = 0.94	1.622 mPa·s and 1.616 mPa·s
293.15 K, 101 kPa, x2 = 0.96	1.408 mPa·s and 1.403 mPa·s
293.15 K, 101 kPa, x2 = 0.98	1.203 mPa·s and 1.2 mPa·s
293.15 K, 101.33 kPa, x1 = 0.0217	1.225 mPa·s
293.15 K, 101.33 kPa, x1 = 0.0466	1.483 mPa·s
293.15 K, 101.33 kPa, x1 = 0.0989	2.011 mPa·s
293.15 K, 101.33 kPa, x1 = 0.1478	2.357 mPa·s
293.15 K, 101.33 kPa, x1 = 0.196	2.65 mPa·s
293.15 K, 101.33 kPa, x1 = 0.2481	2.888 mPa·s
293.15 K, 101.33 kPa, x1 = 0.2859	2.908 mPa·s
293.15 K, 101.33 kPa, x1 = 0.3728	2.707 mPa·s
293.15 K, 101.33 kPa, x1 = 0.4919	2.262 mPa·s
293.15 K, 101.33 kPa, x1 = 0.5936	1.748 mPa·s
293.15 K, 101.33 kPa, x1 = 0.7991	1.184 mPa·s
293.15 K, 101.33 kPa, x1 = 0.8795	1.073 mPa·s
298.15 K, 101 kPa, x2 = 0.1	0.9018 mPa·s and 0.8984 mPa·s
298.15 K, 101 kPa, x2 = 0.3	1.233 mPa·s and 1.232 mPa·s
298.15 K, 101 kPa, x2 = 0.4	1.508 mPa·s and 1.503 mPa·s
298.15 K, 101 kPa, x2 = 0.5	1.853 mPa·s and 1.847 mPa·s
298.15 K, 101 kPa, x2 = 0.6	2.226 mPa·s and 2.225 mPa·s
298.15 K, 101 kPa, x2 = 0.7	2.477 mPa·s and 2.469 mPa·s
298.15 K, 101 kPa, x2 = 0.8	2.345 mPa·s
298.15 K, 101 kPa, x2 = 0.9	1.746 mPa·s and 1.744 mPa·s
298.15 K, 101 kPa, x2 = 0.92	1.583 mPa·s and 1.576 mPa·s
298.15 K, 101 kPa, x2 = 0.94	1.412 mPa·s and 1.408 mPa·s
298.15 K, 101 kPa, x2 = 0.96	1.234 mPa·s
298.15 K, 101 kPa, x2 = 0.98	1.065 mPa·s and 1.063 mPa·s
302.15 K, 101 kPa, x1 = 0.0254	1.266 mPa·s
302.15 K, 101 kPa, x1 = 0.0555	1.535 mPa·s
302.15 K, 101 kPa, x1 = 0.0915	1.856 mPa·s
302.15 K, 101 kPa, x1 = 0.1355	2.071 mPa·s
302.15 K, 101 kPa, x1 = 0.1904	2.333 mPa·s
302.15 K, 101 kPa, x1 = 0.2608	2.542 mPa·s
302.15 K, 101 kPa, x1 = 0.2921	2.58 mPa·s
302.15 K, 101 kPa, x1 = 0.304	2.604 mPa·s
302.15 K, 101 kPa, x1 = 0.3199	2.572 mPa·s
302.15 K, 101 kPa, x1 = 0.3544	2.526 mPa·s
302.15 K, 101 kPa, x1 = 0.4137	2.327 mPa·s
302.15 K, 101 kPa, x1 = 0.4848	2.201 mPa·s
302.15 K, 101 kPa, x1 = 0.5714	1.812 mPa·s
302.15 K, 101 kPa, x1 = 0.6792	1.533 mPa·s
302.15 K, 101 kPa, x1 = 0.8171	1.176 mPa·s
303.15 K, 101 kPa, x2 = 0.1	0.8402 mPa·s and 0.8389 mPa·s
303.15 K, 101 kPa, x2 = 0.2	0.9593 mPa·s and 0.9567 mPa·s
303.15 K, 101 kPa, x2 = 0.3	1.137 mPa·s and 1.122 mPa·s
303.15 K, 101 kPa, x2 = 0.4	1.354 mPa·s and 1.352 mPa·s
303.15 K, 101 kPa, x2 = 0.5	1.641 mPa·s and 1.639 mPa·s
303.15 K, 101 kPa, x2 = 0.6	1.943 mPa·s and 1.939 mPa·s
303.15 K, 101 kPa, x2 = 0.7	2.134 mPa·s and 2.132 mPa·s
303.15 K, 101 kPa, x2 = 0.8	2.026 mPa·s and 2.02 mPa·s
303.15 K, 101 kPa, x2 = 0.9	1.519 mPa·s and 1.516 mPa·s
303.15 K, 101 kPa, x2 = 0.94	1.24 mPa·s and 1.24 mPa·s
303.15 K, 101 kPa, x2 = 0.96	1.093 mPa·s and 1.091 mPa·s
303.15 K, 101 kPa, x2 = 0.98	0.9451 mPa·s and 0.9453 mPa·s
305.15 K, 101 kPa, x1 = 0.0254	1.107 mPa·s
305.15 K, 101 kPa, x1 = 0.0555	1.335 mPa·s
305.15 K, 101 kPa, x1 = 0.0915	1.61 mPa·s
305.15 K, 101 kPa, x1 = 0.1355	1.795 mPa·s
305.15 K, 101 kPa, x1 = 0.1904	2.021 mPa·s
305.15 K, 101 kPa, x1 = 0.2608	2.238 mPa·s
305.15 K, 101 kPa, x1 = 0.2921	2.27 mPa·s
305.15 K, 101 kPa, x1 = 0.304	2.308 mPa·s
305.15 K, 101 kPa, x1 = 0.3199	2.282 mPa·s
305.15 K, 101 kPa, x1 = 0.3544	2.262 mPa·s
305.15 K, 101 kPa, x1 = 0.4137	2.102 mPa·s
305.15 K, 101 kPa, x1 = 0.4848	1.934 mPa·s
305.15 K, 101 kPa, x1 = 0.5714	1.619 mPa·s
305.15 K, 101 kPa, x1 = 0.6792	1.393 mPa·s
305.15 K, 101 kPa, x1 = 0.8171	1.106 mPa·s
308.15 K, 101 kPa, x1 = 0.0254	0.985 mPa·s
308.15 K, 101 kPa, x1 = 0.027	0.9526 mPa·s
308.15 K, 101 kPa, x1 = 0.0555	1.164 mPa·s
308.15 K, 101 kPa, x1 = 0.058	1.163 mPa·s
308.15 K, 101 kPa, x1 = 0.0915	1.428 mPa·s
308.15 K, 101 kPa, x1 = 0.1355	1.583 mPa·s
308.15 K, 101 kPa, x1 = 0.14	1.539 mPa·s
308.15 K, 101 kPa, x1 = 0.1904	1.823 mPa·s
308.15 K, 101 kPa, x1 = 0.2608	1.989 mPa·s
308.15 K, 101 kPa, x1 = 0.2921	1.999 mPa·s
308.15 K, 101 kPa, x1 = 0.304	2.044 mPa·s
308.15 K, 101 kPa, x1 = 0.3199	1.976 mPa·s
308.15 K, 101 kPa, x1 = 0.3544	1.985 mPa·s
308.15 K, 101 kPa, x1 = 0.4137	1.872 mPa·s
308.15 K, 101 kPa, x1 = 0.4848	1.685 mPa·s
308.15 K, 101 kPa, x1 = 0.5714	1.424 mPa·s
308.15 K, 101 kPa, x1 = 0.6792	1.245 mPa·s
308.15 K, 101 kPa, x1 = 0.8171	1.029 mPa·s
308.15 K, 101 kPa, x2 = 0.1	0.7874 mPa·s and 0.7848 mPa·s
308.15 K, 101 kPa, x2 = 0.2	0.8915 mPa·s and 0.8893 mPa·s
308.15 K, 101 kPa, x2 = 0.3	1.036 mPa·s and 1.033 mPa·s
308.15 K, 101 kPa, x2 = 0.4	1.226 mPa·s and 1.224 mPa·s
308.15 K, 101 kPa, x2 = 0.5	1.468 mPa·s and 1.467 mPa·s
308.15 K, 101 kPa, x2 = 0.6	1.707 mPa·s and 1.702 mPa·s
308.15 K, 101 kPa, x2 = 0.7	1.856 mPa·s and 1.856 mPa·s
308.15 K, 101 kPa, x2 = 0.8	1.759 mPa·s and 1.757 mPa·s
308.15 K, 101 kPa, x2 = 0.9	1.335 mPa·s and 1.335 mPa·s
308.15 K, 101 kPa, x2 = 0.92	1.221 mPa·s and 1.22 mPa·s
308.15 K, 101 kPa, x2 = 0.94	1.1 mPa·s and 1.1 mPa·s
308.15 K, 101 kPa, x2 = 0.96	0.9743 mPa·s and 0.9712 mPa·s
308.15 K, 101 kPa, x2 = 0.98	0.8498 mPa·s and 0.8476 mPa·s
313.15 K, 101 kPa, x1 = 0.0254	0.856 mPa·s
313.15 K, 101 kPa, x1 = 0.027	0.8698 mPa·s
313.15 K, 101 kPa, x1 = 0.0555	1.011 mPa·s
313.15 K, 101 kPa, x1 = 0.058	1.067 mPa·s
313.15 K, 101 kPa, x1 = 0.0915	1.284 mPa·s
313.15 K, 101 kPa, x1 = 0.1355	1.433 mPa·s
313.15 K, 101 kPa, x1 = 0.14	1.392 mPa·s
313.15 K, 101.33 kPa, x1 = 0.0217	0.7737 mPa·s
313.15 K, 101.33 kPa, x1 = 0.0466	0.9108 mPa·s
313.15 K, 101.33 kPa, x1 = 0.0989	1.188 mPa·s
313.15 K, 101.33 kPa, x1 = 0.1478	1.404 mPa·s
313.15 K, 101.33 kPa, x1 = 0.2481	1.713 mPa·s
313.15 K, 101.33 kPa, x1 = 0.2859	1.729 mPa·s
313.15 K, 101.33 kPa, x1 = 0.3728	1.586 mPa·s
313.15 K, 101.33 kPa, x1 = 0.4919	1.351 mPa·s
313.15 K, 101.33 kPa, x1 = 0.5936	1.177 mPa·s
313.15 K, 101.33 kPa, x1 = 0.6889	1.005 mPa·s
313.15 K, 101.33 kPa, x1 = 0.7991	0.8768 mPa·s
313.15 K, 101.33 kPa, x1 = 0.8795	0.8096 mPa·s
318.15 K, 101 kPa, x1 = 0.027	0.796 mPa·s
318.15 K, 101 kPa, x1 = 0.058	0.9746 mPa·s
318.15 K, 101 kPa, x1 = 0.14	1.24 mPa·s
323.15 K, 101 kPa, x1 = 0.027	0.7318 mPa·s
323.15 K, 101 kPa, x1 = 0.058	0.8939 mPa·s
323.15 K, 101 kPa, x1 = 0.14	1.096 mPa·s
